Values of other authors, collected in patent US20230174569A1, “PROCESS PER PREPARING (3a,5a)-20-OXOPREGNAN-3-YL GLYCYL-L-VALINATE HYDROCHLORIDE” ([…] S.R.L., priority 2021, published 2023).
Structures can show the parent of a compound that is named as a salt.

Columns and labels:
[1] = compared with Brexanolone
[2] = compared with Brexanolone; remark: listed apart in the source

CC(=O)[C@H]1CC[C@H]2[C@@H]3CC[C@H]4C[C@H](OC(=O)[C@@H](NC(=O)CN)C(C)C)CC[C@]4(C)[C@H]3CC[C@]12C [compound I, (3α,5α)-20-oxopregnan-3-yl glycyl-L-valinate hydrochloride]
water solubility [1]: better profile than Brexanolone | storage stability in aqueous solutions [2]: better profile than Brexanolone
